Measured values: patent US8143290B2, “Chemical compounds 572” (AstraZeneca AB, priority 2006, dated 2012)
Counter-ions that a name gives are not always drawn.

target: T1, recombinant human GR (Homo sapiens, UniProt P04150); assay: Human Glucocorticoid Receptor (GR) Assay, fluorescence polarization; type: binding; settings: GS Red tracer, incubated 2 h at r.t., XLfit model 205, read-out: GRhuFL_FP_v2 Mean IC50
T1 construct: purchased Panvera/Invitrogen P2812 (kit P2893)
T1 sequence (P04150 1-777): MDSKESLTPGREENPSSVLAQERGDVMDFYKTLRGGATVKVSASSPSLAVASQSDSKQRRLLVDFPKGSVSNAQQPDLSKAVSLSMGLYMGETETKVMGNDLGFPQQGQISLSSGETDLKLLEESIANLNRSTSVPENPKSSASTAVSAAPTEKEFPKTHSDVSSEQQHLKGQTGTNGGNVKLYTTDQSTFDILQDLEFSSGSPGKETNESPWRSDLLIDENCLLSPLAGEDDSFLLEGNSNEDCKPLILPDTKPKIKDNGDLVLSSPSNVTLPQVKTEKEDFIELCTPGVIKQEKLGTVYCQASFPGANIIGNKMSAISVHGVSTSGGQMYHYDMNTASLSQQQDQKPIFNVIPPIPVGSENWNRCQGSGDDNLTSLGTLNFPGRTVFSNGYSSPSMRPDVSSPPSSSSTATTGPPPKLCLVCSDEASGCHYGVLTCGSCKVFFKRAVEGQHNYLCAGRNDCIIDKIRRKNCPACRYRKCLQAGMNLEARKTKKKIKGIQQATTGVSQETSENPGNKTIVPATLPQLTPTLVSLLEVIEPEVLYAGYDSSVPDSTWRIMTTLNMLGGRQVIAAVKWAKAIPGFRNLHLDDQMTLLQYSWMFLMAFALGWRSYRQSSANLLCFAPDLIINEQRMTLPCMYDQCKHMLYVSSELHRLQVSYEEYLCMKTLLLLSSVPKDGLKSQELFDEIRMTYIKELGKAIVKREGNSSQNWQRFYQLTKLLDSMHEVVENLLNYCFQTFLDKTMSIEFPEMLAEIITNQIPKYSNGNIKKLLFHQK
How it was run: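 After 2 h dark incubation at r.t., polarization reported displacement of the GS Red tracer from recombinant GR, in buffer with phosphate, molybdate, EDTA, DTT and Stabilizing Peptide. Controls: dexamethasone (100%) and DMSO (0%).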

Row | Structure (SMILES) | IC50
1 | COc1cccc([C@@H](Oc2ccc3c(cnn3-c3ccc(F)cc3)c2)[C@H](C)NC(=O)c2ccccn2)c1 [Example 89, N-((1R,2S)-1-(1-(4-fluorophenyl)-1H-indazol-5-yloxy)-1-(3-methoxyphenyl)propan-2-yl)picolinamide] | 4.4 nM
2 | COc1cccc([C@@H](Oc2ccc3c(cnn3-c3ccc(F)cc3)c2)[C@H](C)NC(=O)c2cocn2)c1 [Example 85, N-((1R,2S)-1-(1-(4-fluorophenyl)-1H-indazol-5-yloxy)-1-(3-methoxyphenyl)propan-2-yl)oxazole-4-carboxamide] | 2.1 nM
3 | CC(C)(C)C(=O)NC(C(Oc1ccc2c(cnn2-c2ccc(F)cc2)c1)c1ccccc1)C(F)(F)F (single isomer, unassigned) [Example 147D2E1, N-(1,1,1-trifluoro-3-(1-(4-fluorophenyl)-1H-indazol-5-yloxy)-3-phenylpropan-2-yl)pivalamide] | 7.4 nM
4 | Cc1cc(F)ccc1[C@@H](Oc1ccc2c(cnn2-c2ccc(F)cc2)c1)[C@H](C)NC(=O)C(C)(C)CO [Example 256, N-[(1R,2S)-1-(4-fluoro-2-methyl-phenyl)-1-[1-(4-fluorophenyl)indazol-5-yl]oxy-propan-2-yl]-3-hydroxy-2,2-dimethyl-propanamide] | 5.3 nM
5 | COc1cccc([C@@H](Oc2ccc3c(cnn3-c3ccc(F)cc3)c2)[C@H](C)NC(=O)c2cc(C)c(C)o2)c1 [Example 286, N-[(1R,2S)-1-[1-(4-fluorophenyl)indazol-5-yl]oxy-1-(3-methoxlphenyl)propan-2-yl]-4,5-dimethyl-furan-2-carboxamide] | 4.7 nM
6 | COc1cccc([C@@H](Oc2ccc3c(cnn3-c3ccc(F)cc3)c2)[C@H](C)NC(=O)C(=O)OC(C)C)c1 [Example 77, Propan-2-yl [(1R,2S)-1-[1-(4-fluorophenyl)indazol-5-yl]oxy-1-(3-methoxyphenyl)propan-2-yl]carbamoylformate] | 2.6 nM
7 | Cc1cc(F)ccc1[C@@H](Oc1ccc2c(cnn2-c2ccc(F)cc2)c1)[C@H](C)NC(=O)C(C)(C)C [Example 179, N-[(1R,2S)-1-(4-fluoro-2-methyl-phenyl)-1-[1-(4-fluorophenyl)indazol-5-yl]oxy-propan-2-yl]-2,2-dimethyl-propanamide] | 3.7 nM
8 | COc1cccc([C@@H](Oc2ccc3c(cnn3-c3ccc(F)cc3)c2)[C@H](C)NC(=O)C(C)(F)F)c1 [Example 302, 2,2-difluoro-N-((1R,2S)-1-(1-(4-fluorophenyl)-1H-indazol-5-yloxy)-1-(3-methoxyphenyl)propan-2-yl)propanamide] | 3.2 nM
9 | Cc1cnc(C(=O)N[C@@H](C)[C@H](Oc2ccc3c(cnn3-c3ccc(F)cc3)c2)c2ccc(Cl)cc2)s1 [Example 204, N-[(1R,2S)-1-(4-chlorophenyl)-1-[1-(4-fluorophenyl)indazol-5-yl]oxy-propan-2-yl]-5-methyl-1,3-thiazole-2-carboxamide] | 6.7 nM
10 | C[C@H](NC(=O)C(C)(C)C)[C@@H](Cc1ccccc1)Oc1ccc2c(cnn2-c2ccc(F)cc2)c1 [Example 73, N-[(2S,3R)-3-[1-(4-Fluorophenyl)indazol-5-yl]oxy-4-phenyl-butan-2-yl]-2,2-dimethyl-propanamide] | 5.1 nM
11 | C[C@H](NC(=O)C(F)(F)F)[C@H](Oc1ccc2c(cnn2-c2ccc(F)cc2)c1)c1ccc2c(c1)OCO2 [Example 166, N-[(1R,2S)-1-benzo[1,3]dioxol-5-yl-1-[1-(4-fluorophenyl)indazol-5-yl]oxy-propan-2-yl]-2,2,2-trifluoro-acetamide] | 6.9 nM
12 | Cc1ccc(C)c([C@@H](Oc2ccc3c(cnn3-c3ccc(F)cc3)c2)[C@H](C)NC(=O)c2ncc(C)s2)c1 [Example 196, N-[(1R,2S)-1-(2,5-dimethylphenyl)-1-[1-(4-fluorophenyl)indazol-5-yl]oxy-propan-2-yl]-5-methyl-1,3-thiazole-2-carboxamide] | 6.2 nM
13 | C[C@H](NC(=O)C(C)(C)F)[C@H](Oc1ccc2c(cnn2-c2ccc(F)cc2)c1)c1cccc(F)c1 [Example 243, 2-fluoro-N-[(1R,2S)-1-(3-fluorophenyl)-1-[1-(4-fluorophenyl)indazol-5-yl]oxy-propan-2-yl]-2-methyl-propanamide] | 5.5 nM
14 | Cc1cnc(C(=O)N[C@@H](C)[C@H](Oc2ccc3c(cnn3-c3ccc(F)cc3)c2)c2ccc(C(C)(C)C)cc2)s1 [Example 208, N-[(1R,2S)-1-[1-(4-fluorophenyl)indazol-5-yl]oxy-1-(4-tert-butylphenyl)propan-2-yl]-5-methyl-1,3-thiazole-2-carboxamide] | 8.2 nM
15 | COc1cccc([C@@H](Oc2ccc3c(cnn3-c3ccc(F)cc3)c2)[C@H](C)NC(=O)[C@@H](C)N)c1 [Example 303, (R)-2-amino-N-((1R,2S)-1-(1-(4-fluorophenyl)-1H-indazol-5-yloxy)-1-(3-methoxyphenyl)propan-2-yl)propanamide trifluoroacetic acid salt] | 5 nM
16 | Cc1ccc([C@@H](Oc2ccc3c(cnn3-c3ccc(F)cc3)c2)[C@H](C)NC(=O)C2(C)CC2)c(C)c1 [Example 216, N-[(1R,2S)-1-(2,4-dimethylphenyl)-1-[1-(4-fluorophenyl)indazol-5-yl]oxy-propan-2-yl]-1-methyl-cyclopropane-1-carboxamide] | 4.7 nM
17 | COc1cccc([C@@H](Oc2ccc3c(cnn3-c3ccc(F)cc3)c2)[C@H](C)NC(=O)c2scnc2C)c1 [Example 289, N-[(1R,2S)-1-[1-(4-fluorophenyl)indazol-5-yl]oxy-1-(3-methoxyphenyl)propan-2-yl]-4-methyl-1,3-thiazole-5-carboxamide] | 3.9 nM
18 | CC[C@H](NC(=O)CO)[C@H](Oc1ccc2c(cnn2-c2ccc(F)cc2)c1)c1cccc(OC)c1 [Example 97, N-((1R,2S)-1-(1-(4-fluorophenyl)-1H-indazol-5-yloxy)-1-(3-methoxyphenyl)butan-2-yl)-2-hydroxyacetamide] | 3.3 nM
19 | COc1cccc([C@@H](Oc2ccc3c(cnn3-c3ccc(F)cc3)c2)[C@H](C)NC(=O)c2nc3ccccc3s2)c1 [Example 297, N-[(1R,2S)-1-[1-(4-fluorophenyl)indazol-5-yl]oxy-1-(3-methoxyphenyl)propan-2-yl]benzothiazole-2-carboxamide] | 8.6 nM
20 | C[C@H](NC(=O)NCc1ccco1)[C@H](Oc1ccc2c(cnn2-c2ccc(F)cc2)c1)c1ccccc1 [Example 105, 1-{(1S,2R)-2-{[1-(4-Fluorophenyl)-1H-indazole-5-yl]oxy}-1-methyl-2-phenylethyl}-3-(2-furylmethyl)urea] | 3.2 nM
21 | COCC(=O)N[C@@H](C)[C@H](Oc1ccc2c(cnn2-c2ccc(F)cc2)c1)c1cccc(F)c1 [Example 263, N-[(1R,2S)-1-(3-fluorophenyl)-1-[1-(4-fluorophenyl)indazol-5-yl]oxy-propan-2-yl]-2-methoxy-acetamide] | 4.2 nM
22 | COc1cccc([C@@H](Oc2ccc3c(cnn3-c3ccc(F)cc3)c2)[C@H](C)NC(=O)c2nc3ccccc3[nH]2)c1 [Example 294, N-[(1R,2S)-1-[1-(4-fluorophenyl)indazol-5-yl]oxy-1-(3-methoxyphenyl)propan-2-yl]-1H-benzoimidazole-2-carboxamide] | 4.1 nM
23 | C[C@H](NC(=S)NCc1ccco1)[C@H](Oc1ccc2c(cnn2-c2ccc(F)cc2)c1)c1ccccc1 [Example 108, 1-{(1S,2R)-2-{[1-(4-Fluorophenyl)-1H-indazole-5-yl]oxy}-1-methyl-2-phenylethyl}-3-(2-furylmethyl)thiourea] | 4.9 nM
24 | CCC[C@H](NC(=O)C(C)(C)C)[C@H](Oc1ccc2c(cnn2-c2ccc(F)cc2)c1)c1ccccc1 [Example 92, N-((1R,2S)-1-(1-(4-fluorophenyl)-1H-indazol-5-yloxy)-1-phenylpentan-2-yl)pivalamide] | 3.8 nM
25 | COc1c(C)cc([C@@H](Oc2ccc3c(cnn3-c3ccc(F)cc3)c2)[C@H](C)NC(=O)c2ncc(C)s2)cc1C [Example 203, N-[(1R,2S)-1-[1-(4-fluorophenyl)indazol-5-yl]oxy-1-(4-methoxy-3,5-dimethyl-phenyl)propan-2-yl]-5-methyl-1,3-thiazole-2-carboxamide] | 5.4 nM
26 | COc1cccc([C@@H](Oc2ccc3c(cnn3-c3ccc(F)cc3)c2)[C@H](C)NC(=O)CF)c1 [Example 53, 2-Fluoro-N-[(1R,2S)-1-[1-(4-fluorophenyl)indazol-5-yl]oxy-1-(3-methoxyphenyl)propan-2-yl]acetamide] | 3.5 nM
27 | COc1cccc([C@@H](Oc2ccc3c(cnn3-c3ccc(F)cc3)c2)[C@H](C)NC(=O)C2CCN(C(=O)OC(C)(C)C)C2)c1 (stereo partly drawn) [Example 301, tert-butyl 3-((1R,2S)-1-(1-(4-fluorophenyl)-1H-indazol-5-yloxy)-1-(3-methoxyphenyl)propan-2-ylcarbamoyl)pyrrolidine-1-carboxylate] | 5.2 nM
